Where “and” joins values, the source holds several entries; their conditions need not be identical. Equal values may be shown once.
Columns and labels:
[1] = test system: OCI-AML2 xenografts; experiment: OCI-AML2 xenograft efficacy (tumor volume, body weight); settings: venetoclax 25 mg/kg QD × 14, azacitidine 8 mg/kg Q7D × 3, or the combination of both
Experimental: All animal studies were conducted in accordance with the guidelines approved by the Institutional Animal Care and Use Committees of AbbVie. The research protocol was approved by In Vivo Pharmacology at AbbVie prior to study initiation but was not publicly registered or disclosed. Female C.B-17 SCID-beige mice (AMO-1, OPM-2, NCI-H929, and OCI-AML2 xenografts) and female NSG mice (MV4-11-Red.Fluc systemic) were purchased from Charles River Laboratories (Wilmington, MA). Animals were housed in a light cycle-controlled room with HEPA filtration at 22 °C. Animals had nesting and climbing cage topper as the primary environmental enrichment. Animals were inoculated subcutaneously in the right flank with 5 × 10^6 (AMO-1, OPM-2, NCI-H929, and OCI-AML2) or intravenous (IV) with 5 × 10^6 (MV4-11-Red.Fluc). The inoculation volume (0.2 mL) comprised a 50:50 mixture of cells in growth media and Matrigel (BD Biosciences) for subcutaneous injections and 100% phosphate-buffered saline for IV administration. […] Electronic calipers were used to measure the length and width of each tumor 2 to 3 times per week. Tumor volume was estimated by applying the following equation: volume = length × width^2/2. All groups remained blinded during measurements and dosing; only veterinary staff were aware of group identity. When tumors reached approximately 200 mm^3, mice were randomized by match and distributed into treatment and control groups. All xenograft trials were conducted using 5 to 10 mice per group, and all mice were ear tagged and monitored individually throughout the studies.
For combination studies, all compounds were administered within 30 min of each other.
The tumor growth delay (TGD) percentage was determined as the percentage increase of the median time period for the treatment group to reach an arbitrary tumor volume of 1000 mm^3 relative to the vehicle control group. […] A power analysis was conducted using historical data to determine the number of animals required to yield significance of 0.05 at a 30% difference. There were no animals excluded. Data from experiments in vivo were analyzed using the student’s t-test for TGI values and the Mann–Whitney U test for TGD using Excel and GraphPad Prism. Fisher’s exact test was used to probe significance of differences in response frequency.

[2] = test system: MV4-11-Red.Fluc; experiment: Systemic MV4-11-Red.Fluc model (bioluminescence, total flux); format: in vivo, mouse
Experimental: All animal studies were conducted in accordance with the guidelines approved by the Institutional Animal Care and Use Committees of AbbVie. The research protocol was approved by In Vivo Pharmacology at AbbVie prior to study initiation but was not publicly registered or disclosed. Female C.B-17 SCID-beige mice (AMO-1, OPM-2, NCI-H929, and OCI-AML2 xenografts) and female NSG mice (MV4-11-Red.Fluc systemic) were purchased from Charles River Laboratories (Wilmington, MA). Animals were housed in a light cycle-controlled room with HEPA filtration at 22 °C. Animals had nesting and climbing cage topper as the primary environmental enrichment. Animals were inoculated subcutaneously in the right flank with 5 × 10^6 (AMO-1, OPM-2, NCI-H929, and OCI-AML2) or intravenous (IV) with 5 × 10^6 (MV4-11-Red.Fluc). The inoculation volume (0.2 mL) comprised a 50:50 mixture of cells in growth media and Matrigel (BD Biosciences) for subcutaneous injections and 100% phosphate-buffered saline for IV administration. All cell lines used in this publication were authenticated using IDEXX for STR profiling as well as their IMPACT and human IMPACT panels for pathogen screening. Electronic calipers were used to measure the length and width of each tumor 2 to 3 times per week. Tumor volume was estimated by applying the following equation: volume = length × width^2/2. All groups remained blinded during measurements and dosing; only veterinary staff were aware of group identity. When tumors reached approximately 200 mm^3, mice were randomized by match and distributed into treatment and control groups. All xenograft trials were conducted using 5 to 10 mice per group, and all mice were ear tagged and monitored individually throughout the studies. Any animal with a tumor above 2000 mm^3 or 15% loss in body weight was euthanized and removed from the study. Tumor burden in the systemic MV4-11-Red.Fluc experiment was measured using an IVIS® spectrum from PerkinElmer by taking the total photon flux of the entire dorsal side of an individual mouse. Ten minutes prior to imaging, animals received intraperitoneally 0.2 mL of a 15-mg/mL solution of D-Luciferin (PerkinElmer, Catalog #122799) formulated in 100% phosphate-buffered saline. Animals were anesthetized using 3.5% isoflurane and maintained using 2%. Six days after inoculation, animals were imaged and randomized into vehicle and treatment groups at a total flux of ~1 × 10^8. A background control mouse that was tumor naive but received D-Luciferin was placed in the upper left corner of each image. The total flux from this animal was subtracted from the total flux of each animal present in the image. […]

[3] = Day 10, individual mice (ROI 2-10), listed as ABT-199
[4] = Day 13, individual mice (ROI 2-10), listed as ABT-199
[5] = Day 17, individual mice (ROI 2-10), listed as ABT-199
[6] = Day 20, individual mice (ROI 2-10), listed as ABT-199
[7] = Day 24, individual mice (ROI 2-10), listed as ABT-199
[8] = Day 31, individual mice (ROI 2-10), listed as ABT-199

For `CC1(C)CCC(CN2CCN(c3ccc(C(=O)NS(=O)(=O)c4ccc(NCC5CCOCC5)c([N+](=O)[O-])c4)c(Oc4cnc5[nH]ccc5c4)c3)CC2)=C(c2ccc(Cl)cc2)C1` [venetoclax], the “effect on OCI-AML2 xenograft growth” value [1] was “no meaningful effect”, the “antitumor activity” value ([2]; 50 mg/kg for 21 days, PO) was “no antitumor activity” and the “Total Flux” value ([2]; 648 h) was 2.48E+10 p/s. For the same compound, the “Total Flux minus ROI 1 (background)” value ([2]; 648 h) was 2.48E+10 p/s, the “Total Flux [p/s]” value [2, 3] was 3.06E+08 p/s and 5.81E+08 p/s and 2.31E+08 p/s and 9.72E+08 p/s and 7.29E+08 p/s and 4.72E+08 p/s and 3.55E+08 p/s and 4.65E+08 p/s and 4.49E+08 p/s and the “Total flux minus background control mouse (ROI 1)” value [2, 3] was 3.02E+08 p/s and 5.77E+08 p/s and 2.27E+08 p/s and 9.68E+08 p/s and 7.24E+08 p/s and 4.68E+08 p/s and 3.50E+08 p/s and 4.61E+08 p/s and 4.45E+08 p/s. The “Total Flux [p/s]” value [2, 4] was 1.30E+09 p/s and 1.10E+09 p/s and 6.50E+08 p/s and 9.71E+08 p/s and 1.65E+09 p/s and 8.95E+08 p/s and 8.72E+08 p/s and 1.18E+09 p/s and 1.23E+09 p/s, the “Total flux minus background control mouse (ROI 1)” value [2, 4] was 1.29E+09 p/s and 1.09E+09 p/s and 6.41E+08 p/s and 9.63E+08 p/s and 1.64E+09 p/s and 8.87E+08 p/s and 8.64E+08 p/s and 1.18E+09 p/s and 1.22E+09 p/s and the “Total Flux [p/s]” value [2, 5] was 3.56E+09 p/s and 4.83E+09 p/s and 3.68E+09 p/s and 6.21E+09 p/s and 6.82E+09 p/s and 2.69E+09 p/s and 4.42E+09 p/s and 4.69E+09 p/s and 4.88E+09 p/s. The “Total flux minus background control mouse (ROI 1)” value [2, 5] was 3.54E+09 p/s and 4.80E+09 p/s and 3.65E+09 p/s and 6.19E+09 p/s and 6.79E+09 p/s and 2.67E+09 p/s and 4.40E+09 p/s and 4.67E+09 p/s and 4.85E+09 p/s, the “Total Flux [p/s]” value [2, 6] was 8.57E+09 p/s and 1.38E+10 p/s and 5.34E+09 p/s and 1.24E+10 p/s and 6.94E+09 p/s and 6.64E+09 p/s and 8.48E+09 p/s and 1.02E+10 p/s and 9.62E+09 p/s and the “Total flux minus background control mouse (ROI 1)” value [2, 6] was 8.51E+09 p/s and 1.38E+10 p/s and 5.28E+09 p/s and 1.23E+10 p/s and 6.88E+09 p/s and 6.58E+09 p/s and 8.42E+09 p/s and 1.02E+10 p/s and 9.56E+09 p/s. For the same compound, the “Total Flux [p/s]” value [2, 7] was 9.23E+09 p/s and 1.74E+10 p/s and 6.63E+09 p/s and 2.32E+10 p/s and 2.87E+10 p/s and 1.25E+10 p/s and 1.47E+10 p/s and 1.56E+10 p/s and 1.06E+10 p/s, the “Total flux minus background control mouse (ROI 1)” value [2, 7] was 9.16E+09 p/s and 1.73E+10 p/s and 6.56E+09 p/s and 2.31E+10 p/s and 2.87E+10 p/s and 1.24E+10 p/s and 1.46E+10 p/s and 1.55E+10 p/s and 1.06E+10 p/s and the “Total Flux minus ROI 1 (background)” value ([2]; Day 27, individual ROI (one per animal), background-subtracted, listed as ABT-199) was 2.02E+10 p/s and 1.49E+10 p/s and 4.29E+10 p/s and 4.73E+10 p/s and 2.09E+10 p/s and 3.23E+10 p/s and 1.93E+10 p/s and 2.82E+10 p/s. The “Total Flux” value ([2]; Day 27, individual ROI (one per animal, ROI 2-10), raw value, listed as ABT-199) was 2.04E+10 p/s and 1.50E+10 p/s and 4.31E+10 p/s and 4.74E+10 p/s and 2.11E+10 p/s and 3.24E+10 p/s and 1.94E+10 p/s and 2.84E+10 p/s, the “Total Flux [p/s]” value [2, 8] was 3.95E+10 p/s and 4.22E+10 p/s and 3.73E+10 p/s and 1.10E+11 p/s and 6.34E+10 p/s and 6.46E+10 p/s and 6.17E+10 p/s and 4.73E+10 p/s and 4.87E+10 p/s and the “Total flux minus background control mouse (ROI 1)” value [2, 8] was 3.92E+10 p/s and 4.19E+10 p/s and 3.70E+10 p/s and 1.10E+11 p/s and 6.31E+10 p/s and 6.43E+10 p/s and 6.13E+10 p/s and 4.70E+10 p/s and 4.84E+10 p/s. For the same compound, the “Total Flux minus ROI 1 (background)” value ([2]; Day 34, individual ROI (one per animal), background-subtracted, listed as ABT-199) was 6.39E+10 p/s and 5.69E+10 p/s and 4.58E+10 p/s and 3.00E+11 p/s and 1.05E+11 p/s and 1.25E+11 p/s and 8.20E+10 p/s and 1.20E+11 p/s and 6.30E+10 p/s, the “Total Flux” value ([2]; Day 34, individual ROI (one per animal, ROI 2-10), raw value, listed as ABT-199) was 6.47E+10 p/s and 5.77E+10 p/s and 4.66E+10 p/s and 3.01E+11 p/s and 1.06E+11 p/s and 1.26E+11 p/s and 8.28E+10 p/s and 1.21E+11 p/s and 6.39E+10 p/s and the “Total Flux minus ROI 1 (background)” value ([2]; Day 38, individual ROI (one per animal), background-subtracted, listed as ABT-199) was 3.53E+10 p/s and 1.45E+11 p/s and 3.00E+11 p/s and 1.27E+11 p/s and 1.37E+11 p/s and 1.69E+11 p/s and 9.41E+10 p/s and 1.57E+11 p/s. For the same compound, the “Total Flux” value ([2]; Day 38, individual ROI (one per animal, ROI 2-10), raw value, listed as ABT-199) was 3.60E+10 p/s and 1.46E+11 p/s and 3.01E+11 p/s and 1.27E+11 p/s and 1.38E+11 p/s and 1.69E+11 p/s and 9.48E+10 p/s and 1.57E+11 p/s, the “Total Flux minus ROI 1 (background)” value ([2]; Day 41, individual ROI (one per animal), background-subtracted, listed as ABT-199) was 2.65E+11 p/s and 1.77E+09 p/s and 1.55E+11 p/s and 4.70E+11 p/s and -1.25E+08 p/s and 2.06E+11 p/s and 5.84E+11 p/s and 2.05E+08 p/s and 1.78E+11 p/s and the “Total Flux” value ([2]; Day 41, individual ROI (one per animal, ROI 2-10), raw value, listed as ABT-199) was 2.66E+11 p/s and 3.30E+09 p/s and 1.57E+11 p/s and 4.71E+11 p/s and 1.41E+09 p/s and 2.08E+11 p/s and 5.85E+11 p/s and 1.74E+09 p/s and 1.80E+11 p/s. The “Total Flux minus ROI 1 (background)” value ([2]; Day 45, individual ROI (one per animal), background-subtracted, listed as ABT-199) was -3.57E+08 p/s and -4.07E+08 p/s and -2.51E+08 p/s and -8.01E+08 p/s and 2.76E+08 p/s and 4.15E+11 p/s and -2.10E+07 p/s and 1.27E+08 p/s and 8.71E+11 p/s and the “Total Flux” value ([2]; Day 45, individual ROI (one per animal, ROI 2-10), raw value, listed as ABT-199) was 9.69E+08 p/s and 9.19E+08 p/s and 1.08E+09 p/s and 5.25E+08 p/s and 1.60E+09 p/s and 4.16E+11 p/s and 1.30E+09 p/s and 1.45E+09 p/s and 8.72E+11 p/s.

— paper PMC10600239, “Selective MCL-1 inhibitor ABBV-467 is efficacious in tumor models but is associated with cardiac troponin increases in patients” (Communications Medicine, 2023)
